Results from ChEMBL document CHEMBL4024706 (Eur J Med Chem, 2017).

Columns and labels:
[1] = molecular target: Tyrosine-protein kinase BTK (Homo sapiens, UniProt Q06187, C481S); experiment: Irreversible inhibition of recombinant full length 3'-FLAG-tagged BTK C481S mutant (unknown origin) expressed in HEK293T cells assessed as reduction in Y223 phosphorylation measured after 4 hrs by Western blot method; format: cell-based
[2] = MRT (0 to t) in Sprague-Dawley rat at 1 mg/kg, iv by LC-MS/MS method; format: ADME, organism-based; conditions: in vivo
[3] = tested on: Tyrosine-protein kinase ABL1 (Homo sapiens), P00519 [F317L]; experiment: Inhibition of human non-phosphorylated ABL1 F317L mutant (S229 to K512 residues) expressed in mammalian expression system assessed as residual activity at 1 uM by Kinomescan method relative to control
[4] = tested on: Tyrosine-protein kinase ABL1 (Homo sapiens), P00519 [F317L]; experiment: Inhibition of human phosphorylated ABL1 F317L mutant (S229 to K512 residues) expressed in mammalian expression system assessed as residual activity at 1 uM by Kinomescan method relative to control
[5] = tested on: Tyrosine-protein kinase ABL1 (Homo sapiens), P00519 [H396P]; experiment: Inhibition of human phosphorylated ABL1 H396P mutant (S229 to K512 residues) expressed in mammalian expression system assessed as residual activity at 1 uM by Kinomescan method relative to control
[6] = tested on: Tyrosine-protein kinase ABL1 (Homo sapiens), P00519 [Q252H]; experiment: Inhibition of human phosphorylated ABL1 Q252H mutant expressed in mammalian expression system assessed as residual activity at 1 uM by Kinomescan method relative to control
[7] = molecular target: Mitogen-activated protein kinase kinase kinase 6 (Homo sapiens) (UniProt O95382); experiment: Inhibition of wild-type human partial length ASK2 (M278 to R972 residues) expressed in mammalian expression system assessed as residual activity at 1 uM by Kinomescan method relative to control
[8] = molecular target: Calcium/calmodulin-dependent protein kinase type II subunit delta (Homo sapiens) (UniProt Q13557); experiment: Inhibition of wild-type human partial length CAMK2D (M1 to E329 residues) expressed in bacterial expression system assessed as residual activity at 1 uM by Kinomescan method relative to control
[9] = molecular target: Cyclin-dependent kinase 2 (Homo sapiens) (UniProt P24941); experiment: Inhibition of wild-type human full length CDK2 (M1 to L298 residues) expressed in bacterial expression system assessed as residual activity at 1 uM by Kinomescan method relative to control
[10] = molecular target: Citron Rho-interacting kinase (Homo sapiens) (UniProt O14578); experiment: Inhibition of wild-type human partial length CIT (M68 to E432 residues) expressed in bacterial expression system assessed as residual activity at 1 uM by Kinomescan method relative to control
[11] = molecular target: Casein kinase I isoform alpha (Homo sapiens) (UniProt P48729); experiment: Inhibition of wild-type human partial length CSNK1A1 (M1 to L450 residues) expressed in mammalian expression system assessed as residual activity at 1 uM by Kinomescan method relative to control
[12] = molecular target: Serine/threonine-protein kinase 17A (Homo sapiens) (UniProt Q9UEE5); experiment: Inhibition of wild-type human partial length DRAK1 (R32 to E363 residues) expressed in bacterial expression system assessed as residual activity at 1 uM by Kinomescan method relative to control
[13] = molecular target: Dual specificity tyrosine-phosphorylation-regulated kinase 1B (Homo sapiens) (UniProt Q9Y463); experiment: Inhibition of wild-type human full length DYRK1B (M1 to S629 residues) expressed in bacterial expression system assessed as residual activity at 1 uM by Kinomescan method relative to control
[14] = molecular target: Tyrosine-protein kinase Fgr (Homo sapiens) (UniProt P09769); experiment: Inhibition of wild-type human partial length FGR (L233 to T529 residues) expressed in bacterial expression system assessed as residual activity at 1 uM by Kinomescan method relative to control
[15] = molecular target: Interleukin-1 receptor-associated kinase 1 (Homo sapiens) (UniProt P51617); experiment: Inhibition of wild-type human partial length IRAK1 (R194 to S712 residues) expressed in mammalian expression system assessed as residual activity at 1 uM by Kinomescan method relative to control
[16] = molecular target: Mitogen-activated protein kinase 9 (Homo sapiens) (UniProt P45984); experiment: Inhibition of wild-type human full length JNK2 (M1 to Q382 residues) expressed in mammalian expression system assessed as residual activity at 1 uM by Kinomescan method relative to control
[17] = molecular target: Dual specificity mitogen-activated protein kinase kinase 6 (Homo sapiens) (UniProt P52564); experiment: Inhibition of wild-type human partial length MEK6 (K36 to D334 residues) expressed in bacterial expression system assessed as residual activity at 1 uM by Kinomescan method relative to control
[18] = molecular target: MAP kinase-interacting serine/threonine-protein kinase 1 (Homo sapiens) (UniProt Q9BUB5); experiment: Inhibition of wild-type human full length MKNK1 (M1 to L424 residues) expressed in mammalian expression system assessed as residual activity at 1 uM by Kinomescan method relative to control
[19] = molecular target: Myosin-IIIa (Homo sapiens) (UniProt Q8NEV4); experiment: Inhibition of wild-type human partial length MYO3A (M1 to K338 residues) expressed in bacterial expression system assessed as residual activity at 1 uM by Kinomescan method relative to control
[20] = molecular target: Myosin-IIIb (Homo sapiens) (UniProt Q8WXR4); experiment: Inhibition of wild-type human partial length MYO3B (M1 to D357 residues) expressed in bacterial expression system assessed as residual activity at 1 uM by Kinomescan method relative to control
[21] = molecular target: Serine/threonine-protein kinase Nek3 (Homo sapiens) (UniProt P51956); experiment: Inhibition of wild-type human full length NEK3 (M1 to R506 residues) expressed in mammalian expression system assessed as residual activity at 1 uM by Kinomescan method relative to control
[22] = molecular target: Platelet-derived growth factor receptor alpha (Homo sapiens) (UniProt P16234); experiment: Inhibition of wild-type human partial length PDGFRA (V575 to D1002 residues) expressed in mammalian expression system assessed as residual activity at 1 uM by Kinomescan method relative to control
[23] = molecular target: Protein kinase C theta type (Homo sapiens) (UniProt Q04759); experiment: Inhibition of wild-type human partial length PRKCQ (L350 to S706 residues) expressed in bacterial expression system assessed as residual activity at 1 uM by Kinomescan method relative to control
[24] = molecular target: Serine/threonine-protein kinase Sgk3 (Homo sapiens) (UniProt Q96BR1); experiment: Inhibition of wild-type human partial length SGK3 (M119 to L496 residues) expressed in mammalian expression system assessed as residual activity at 1 uM by Kinomescan method relative to control
[25] = molecular target: Tyrosine-protein kinase Tec (Homo sapiens) (UniProt P42680); experiment: Inhibition of wild-type human partial length TEC (L341 to D620 residues) expressed in bacterial expression system assessed as residual activity at 1 uM by Kinomescan method relative to control
[26] = molecular target: Non-receptor tyrosine-protein kinase TYK2 (Homo sapiens) (UniProt P29597); experiment: Inhibition of wild-type human partial length TYK2 JH2 pseudokinase domain (G556 to D888 residues) expressed in mammalian expression system assessed as residual activity at 1 uM by Kinomescan method relative to control
Non-receptor tyrosine-protein kinase TYK2 (Homo sapiens), sequence (P29597 whole entry, the tested form may be a part): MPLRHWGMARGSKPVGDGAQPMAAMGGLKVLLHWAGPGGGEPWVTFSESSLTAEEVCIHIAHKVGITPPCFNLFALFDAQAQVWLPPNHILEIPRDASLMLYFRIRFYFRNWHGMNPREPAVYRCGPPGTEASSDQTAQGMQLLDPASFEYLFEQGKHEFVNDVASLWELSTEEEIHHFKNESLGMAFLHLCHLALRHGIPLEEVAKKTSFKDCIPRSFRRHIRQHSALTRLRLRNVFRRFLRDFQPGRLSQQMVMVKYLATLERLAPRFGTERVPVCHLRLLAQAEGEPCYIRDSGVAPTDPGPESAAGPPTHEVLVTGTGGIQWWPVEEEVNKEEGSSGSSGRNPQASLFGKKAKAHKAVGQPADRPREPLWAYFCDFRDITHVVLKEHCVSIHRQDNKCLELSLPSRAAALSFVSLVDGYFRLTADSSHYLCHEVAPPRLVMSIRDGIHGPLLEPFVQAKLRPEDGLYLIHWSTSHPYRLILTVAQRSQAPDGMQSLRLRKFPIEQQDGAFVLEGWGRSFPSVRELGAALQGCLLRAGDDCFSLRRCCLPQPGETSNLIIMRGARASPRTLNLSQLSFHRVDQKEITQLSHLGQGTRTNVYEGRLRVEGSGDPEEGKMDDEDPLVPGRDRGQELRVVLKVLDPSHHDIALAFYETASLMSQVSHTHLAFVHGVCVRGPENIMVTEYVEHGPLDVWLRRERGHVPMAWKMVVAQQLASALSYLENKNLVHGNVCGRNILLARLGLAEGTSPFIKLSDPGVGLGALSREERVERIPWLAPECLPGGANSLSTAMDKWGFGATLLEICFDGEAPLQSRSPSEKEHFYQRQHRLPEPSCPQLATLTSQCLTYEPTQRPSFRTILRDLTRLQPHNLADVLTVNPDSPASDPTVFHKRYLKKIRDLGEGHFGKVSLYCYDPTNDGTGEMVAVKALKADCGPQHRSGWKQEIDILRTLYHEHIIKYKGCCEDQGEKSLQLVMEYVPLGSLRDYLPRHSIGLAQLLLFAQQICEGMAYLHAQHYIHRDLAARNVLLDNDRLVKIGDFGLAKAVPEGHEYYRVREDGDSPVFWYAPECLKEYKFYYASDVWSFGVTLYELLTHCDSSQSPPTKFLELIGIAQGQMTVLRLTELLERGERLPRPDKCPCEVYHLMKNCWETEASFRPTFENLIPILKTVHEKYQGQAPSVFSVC

Dual specificity mitogen-activated protein kinase kinase 6 (Homo sapiens), sequence (P52564 whole entry, the tested form may be a part): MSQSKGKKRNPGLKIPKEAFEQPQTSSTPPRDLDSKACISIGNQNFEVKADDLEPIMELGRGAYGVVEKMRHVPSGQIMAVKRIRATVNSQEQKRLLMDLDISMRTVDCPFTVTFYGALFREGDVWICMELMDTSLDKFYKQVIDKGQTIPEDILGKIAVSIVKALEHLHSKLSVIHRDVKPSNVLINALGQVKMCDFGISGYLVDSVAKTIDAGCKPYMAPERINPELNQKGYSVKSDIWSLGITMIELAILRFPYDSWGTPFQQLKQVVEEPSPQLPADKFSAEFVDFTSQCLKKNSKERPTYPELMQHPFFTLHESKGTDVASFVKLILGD
Serine/threonine-protein kinase 17A (Homo sapiens), sequence (Q9UEE5 whole entry, the tested form may be a part): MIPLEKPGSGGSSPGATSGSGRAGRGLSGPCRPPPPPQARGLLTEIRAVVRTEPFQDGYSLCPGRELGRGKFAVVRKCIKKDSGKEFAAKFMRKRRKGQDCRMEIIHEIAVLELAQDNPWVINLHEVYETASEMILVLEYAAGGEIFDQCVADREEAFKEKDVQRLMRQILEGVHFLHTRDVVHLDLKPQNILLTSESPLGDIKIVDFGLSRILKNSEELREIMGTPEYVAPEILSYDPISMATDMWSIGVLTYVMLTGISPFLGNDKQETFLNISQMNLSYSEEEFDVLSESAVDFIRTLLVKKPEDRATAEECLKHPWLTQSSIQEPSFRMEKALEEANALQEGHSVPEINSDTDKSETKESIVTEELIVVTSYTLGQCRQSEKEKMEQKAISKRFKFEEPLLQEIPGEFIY
Protein kinase C theta type (Homo sapiens), sequence (Q04759 whole entry, looked up, the tested form may be a part): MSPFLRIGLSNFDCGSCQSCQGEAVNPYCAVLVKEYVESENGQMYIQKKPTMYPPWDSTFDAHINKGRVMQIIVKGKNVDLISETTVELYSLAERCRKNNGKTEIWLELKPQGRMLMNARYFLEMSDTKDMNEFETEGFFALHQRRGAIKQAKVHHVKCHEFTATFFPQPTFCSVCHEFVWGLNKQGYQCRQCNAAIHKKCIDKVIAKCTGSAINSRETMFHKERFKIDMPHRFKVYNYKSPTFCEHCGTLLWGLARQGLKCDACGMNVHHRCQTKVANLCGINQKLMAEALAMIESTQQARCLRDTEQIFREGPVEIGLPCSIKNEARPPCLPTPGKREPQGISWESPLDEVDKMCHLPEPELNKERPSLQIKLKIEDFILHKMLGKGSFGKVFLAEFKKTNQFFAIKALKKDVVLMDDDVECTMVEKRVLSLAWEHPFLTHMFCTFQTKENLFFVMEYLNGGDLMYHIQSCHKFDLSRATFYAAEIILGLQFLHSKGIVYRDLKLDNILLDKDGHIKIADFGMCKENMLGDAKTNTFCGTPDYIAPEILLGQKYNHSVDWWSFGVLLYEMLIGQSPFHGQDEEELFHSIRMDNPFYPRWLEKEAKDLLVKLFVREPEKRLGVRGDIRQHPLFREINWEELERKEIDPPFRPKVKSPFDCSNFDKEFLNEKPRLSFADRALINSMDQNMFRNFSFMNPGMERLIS
Interleukin-1 receptor-associated kinase 1 (Homo sapiens), sequence (P51617 whole entry, looked up, the tested form may be a part): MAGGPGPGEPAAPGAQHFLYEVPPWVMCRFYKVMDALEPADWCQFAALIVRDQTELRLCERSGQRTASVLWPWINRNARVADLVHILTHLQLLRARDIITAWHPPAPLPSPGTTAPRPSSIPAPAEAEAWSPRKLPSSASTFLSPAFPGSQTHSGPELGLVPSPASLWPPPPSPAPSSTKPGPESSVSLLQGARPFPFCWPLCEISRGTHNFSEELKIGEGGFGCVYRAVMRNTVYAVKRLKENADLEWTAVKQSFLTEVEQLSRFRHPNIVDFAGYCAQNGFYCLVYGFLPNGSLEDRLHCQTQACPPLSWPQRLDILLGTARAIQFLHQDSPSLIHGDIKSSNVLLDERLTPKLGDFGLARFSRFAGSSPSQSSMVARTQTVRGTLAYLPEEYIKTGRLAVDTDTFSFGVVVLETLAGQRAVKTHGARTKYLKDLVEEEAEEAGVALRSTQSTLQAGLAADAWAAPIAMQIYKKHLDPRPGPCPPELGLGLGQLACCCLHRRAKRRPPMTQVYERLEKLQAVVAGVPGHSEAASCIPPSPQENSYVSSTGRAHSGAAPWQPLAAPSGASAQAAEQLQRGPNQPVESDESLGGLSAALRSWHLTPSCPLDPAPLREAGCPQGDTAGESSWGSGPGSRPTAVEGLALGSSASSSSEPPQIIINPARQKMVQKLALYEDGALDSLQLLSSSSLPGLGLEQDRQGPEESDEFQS
MAP kinase-interacting serine/threonine-protein kinase 1 (Homo sapiens), sequence (Q9BUB5 whole entry, looked up, the tested form may be a part): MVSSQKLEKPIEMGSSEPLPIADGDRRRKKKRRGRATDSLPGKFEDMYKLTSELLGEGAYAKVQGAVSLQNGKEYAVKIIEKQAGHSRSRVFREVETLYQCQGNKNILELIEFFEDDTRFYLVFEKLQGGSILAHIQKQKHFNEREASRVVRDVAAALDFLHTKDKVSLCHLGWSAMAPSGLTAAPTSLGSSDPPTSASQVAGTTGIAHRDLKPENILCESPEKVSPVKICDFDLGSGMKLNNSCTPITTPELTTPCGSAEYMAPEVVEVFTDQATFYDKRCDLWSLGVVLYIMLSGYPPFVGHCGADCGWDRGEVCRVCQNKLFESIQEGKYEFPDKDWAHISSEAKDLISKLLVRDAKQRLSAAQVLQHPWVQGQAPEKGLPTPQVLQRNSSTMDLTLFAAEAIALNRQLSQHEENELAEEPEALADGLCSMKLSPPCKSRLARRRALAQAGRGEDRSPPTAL
Platelet-derived growth factor receptor alpha (Homo sapiens), sequence (P16234 whole entry, the tested form may be a part): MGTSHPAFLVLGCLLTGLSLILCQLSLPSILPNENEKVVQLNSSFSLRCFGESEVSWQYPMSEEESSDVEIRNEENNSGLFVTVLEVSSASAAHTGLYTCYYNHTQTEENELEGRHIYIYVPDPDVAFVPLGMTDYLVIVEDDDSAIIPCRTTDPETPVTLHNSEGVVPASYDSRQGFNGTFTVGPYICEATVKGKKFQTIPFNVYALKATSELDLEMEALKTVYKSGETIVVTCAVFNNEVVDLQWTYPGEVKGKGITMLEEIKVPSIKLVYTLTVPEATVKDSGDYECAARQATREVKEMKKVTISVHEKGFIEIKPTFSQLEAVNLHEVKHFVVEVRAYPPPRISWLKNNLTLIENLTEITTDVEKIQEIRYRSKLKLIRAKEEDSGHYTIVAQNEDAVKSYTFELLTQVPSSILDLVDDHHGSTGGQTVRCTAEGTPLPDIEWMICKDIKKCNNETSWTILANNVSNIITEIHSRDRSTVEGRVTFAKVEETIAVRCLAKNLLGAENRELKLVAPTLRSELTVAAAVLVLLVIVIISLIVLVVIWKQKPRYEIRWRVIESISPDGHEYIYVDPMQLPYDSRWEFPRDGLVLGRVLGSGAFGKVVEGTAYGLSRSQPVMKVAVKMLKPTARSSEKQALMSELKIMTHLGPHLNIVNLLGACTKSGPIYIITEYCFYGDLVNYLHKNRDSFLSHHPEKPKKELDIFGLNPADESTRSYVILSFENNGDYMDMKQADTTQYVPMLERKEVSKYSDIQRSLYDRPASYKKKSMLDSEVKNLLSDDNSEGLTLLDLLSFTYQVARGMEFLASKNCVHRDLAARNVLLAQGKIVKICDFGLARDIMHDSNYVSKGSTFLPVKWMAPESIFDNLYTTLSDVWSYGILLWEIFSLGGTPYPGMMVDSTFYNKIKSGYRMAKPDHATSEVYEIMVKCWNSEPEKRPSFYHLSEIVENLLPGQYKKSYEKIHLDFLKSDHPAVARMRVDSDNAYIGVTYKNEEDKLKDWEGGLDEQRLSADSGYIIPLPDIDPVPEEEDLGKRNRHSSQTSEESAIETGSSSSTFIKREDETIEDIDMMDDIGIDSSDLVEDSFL

With `C=CC(=O)Nc1cc(Nc2cc(-c3cccc(NC(=O)c4ccc(C(C)(C)C)cc4)c3C)cn(C)c2=O)ccc1C(=O)N1CCOCC1` the EC50 [1] was greater than 100 nM, the MRT last [2] was 15.6 min and the Activity [3] was 88%. It also gave an Activity [4] of 97%, an Activity [5] of 100% and an Activity [6] of 100%. It also gave an Activity [7] of 95%, an Activity [8] of 100% and an Activity [9] of 99%. It also gave an Activity [10] of 97%, an Activity [11] of 100% and an Activity [12] of 82%. The Activity [13] was 74%, the Activity [14] was 77% and the Activity [15] was 100%. The Activity [16] was 98%, the Activity [17] was 100% and the Activity [18] was 91%. For the same compound, the Activity [19] was 95%, the Activity [20] was 86% and the Activity [21] was 97%. For the same compound, the Activity [22] was 100%, the Activity [23] was 91% and the Activity [24] was 81%. The Activity [25] was 95% and the Activity [26] was 86%.
